Experimental data reported in ChEMBL document CHEMBL1201862, “PubChem BioAssay data set” (2004).
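Cultured in 96-well plates, cells were exposed to test compound for 48 hours across five concentrations. Abbreviation: GI50, concentration required for 50% inhibition of growth.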 Activity calls are given as the source filed them. Rule as the data show it: active = GI50 up to about 1.1 µM and inactive = higher.

What was measured:
Test in all cases: DTP human tumour cell line panel, 48 h
[1] = tested on: OVCAR-3
[2] = tested on: HCT-116
[3] = tested on: CCRF-CEM
[4] = tested on: SF-295
[5] = tested on: LOX IMVI
[6] = tested on: HOP-62
[7] = tested on: KM12
[8] = tested on: A549
[9] = tested on: SF-268
[10] = tested on: UACC-257
[11] = tested on: SR
[12] = tested on: K562
[13] = tested on: EKVX
[14] = tested on: OVCAR-8
[15] = tested on: M14
[16] = tested on: SF-539
[17] = tested on: SK-MEL-2
[18] = tested on: A498

Measured: GI50

COc1ccc(-c2cc(O)c3cc(OC)ccc3n2)cc1
inactive: [1] > 100 µM | [2] > 100 µM | [3] > 100 µM | [4] > 100 µM | [5] > 100 µM | [6] > 100 µM | [7] > 100 µM | [8] > 100 µM | [9] 36.6 µM | [10] > 100 µM | [11] > 100 µM | [12] > 100 µM | [13] > 100 µM | [14] > 100 µM | [15] > 100 µM

[N-]=[N+]=NC(CCl)c1cn([C@H]2C[C@H](O)[C@@H](CO)O2)c(=O)[nH]c1=O (some centres undefined)
inactive: [1] > 100 µM | [2] > 100 µM | [3] > 100 µM | [4] > 100 µM | [16] > 100 µM | [5] > 100 µM | [6] > 100 µM | [7] > 100 µM | [8] > 100 µM | [11] > 100 µM | [12] > 100 µM | [13] > 100 µM | [14] > 100 µM | [15] > 100 µM | [17] > 100 µM

CCOC(=O)C1Cc2[nH]c3ccccc3c2C(C)C1C (centres undefined)
inactive: [1] 15.6 µM | [2] 16.3 µM | [3] 19.7 µM | [4] 19.4 µM | [16] 16.5 µM | [5] 14.8 µM | [7] 17 µM | [8] 14.1 µM | [9] 19.5 µM | [10] 17.6 µM | [11] 16.6 µM | [12] 23.5 µM | [13] 10.8 µM | [14] 3.55 µM | [18] 17.4 µM | [15] 16.7 µM | [17] 20.2 µM

CC12C/C(=C\c3ccccc3)C(=O)C3C1CCCC32
inactive: [1] 74.6 µM | [2] 67.8 µM | [3] 33.3 µM | [4] > 100 µM | [16] > 100 µM | [5] 72.8 µM | [6] > 100 µM | [7] 55.1 µM | [8] > 100 µM | [9] > 100 µM | [10] 53 µM | [11] 36.8 µM | [12] 38.6 µM | [14] > 100 µM | [18] > 100 µM | [15] > 100 µM | [17] > 100 µM

O=C1c2ccccc2C(=O)c2[nH]cnc21
inactive: [1] 21.5 µM | [2] 45.4 µM | [3] 49.9 µM | [4] 34.3 µM | [16] 61.2 µM | [6] > 100 µM | [7] 53.8 µM | [8] 55.3 µM | [9] 93.1 µM | [10] 23 µM | [11] 44 µM | [12] 78.7 µM | [13] 91.2 µM | [14] 34.7 µM | [18] > 100 µM | [15] 41.4 µM | [17] > 100 µM

CO[C@]12CCC(=O)N1C=Cc1c2[nH]c2ccccc12
inactive: [1] > 100 µM | [2] > 100 µM | [3] > 100 µM | [4] > 100 µM | [16] > 100 µM | [5] > 100 µM | [6] > 100 µM | [8] > 100 µM | [9] > 100 µM | [10] > 100 µM | [11] > 100 µM | [12] > 100 µM | [13] > 100 µM | [14] > 100 µM | [18] > 100 µM | [15] > 100 µM

CS(=O)(=O)N(CCC#N)c1ccc(/C=N/NC(=O)CC(=O)Nc2cccc(Cl)c2)cc1
inactive: [1] > 100 µM | [2] > 100 µM | [3] > 100 µM | [4] > 100 µM | [16] > 100 µM | [5] > 100 µM | [6] > 100 µM | [7] > 100 µM | [8] > 100 µM | [9] > 100 µM | [10] > 100 µM | [12] > 100 µM | [13] > 100 µM | [14] > 100 µM | [18] > 100 µM | [15] > 100 µM | [17] > 100 µM

O=C1C[C@@H]2[C@@H](c3ccccc3)[C@@H]3C(=O)c4ccccc4NC(=O)[C@H]3[C@]2(O)c2ccccc2N1
inactive: [1] > 100 µM | [2] > 100 µM | [3] > 100 µM | [4] > 100 µM | [5] > 100 µM | [6] > 100 µM | [7] > 100 µM | [8] > 100 µM | [9] > 100 µM | [11] > 100 µM | [12] > 100 µM | [13] > 100 µM | [14] > 100 µM | [15] > 100 µM | [17] > 100 µM
